The values below come from patent US11535856B2, “Stilbenoid prenyltransferases from plants” (Arkansas State University—Jonesboro, priority 2016, dated 2022).

One data set concerns leukemia HL-60 cells. The settings on record: cited from earlier work.
The subject of data set [1] is SK-MEL, KB, BT-549, and SK-OV-3. The settings on record: BT-549, SK-OV-3; cited from earlier work.
Data set [2] deals with human cannabinoid receptors 2 (hCBR2s) (Homo sapiens, UniProt P34972). The settings on record: cited from earlier work.
In the next data set the test system is macrophages. The conditions noted are these: cited from earlier work.
The test system of a further data set is rotavirus. The settings on record: HT29.f8 cells; cited from earlier work.
Data set [3] is described as follows: Lipophilicity from retention in reverse-phase HPLC. The conditions noted are these: later retention time in reverse-phase HPLC.
Data set [4] relates to intracellular reactive oxygen species. The settings on record: cited from earlier work.
Data set [5] deals with resveratrol prenyltransferase AhR4DT. Briefly: Prenyltransferase assay with microsomal fraction of elicited peanut hairy roots. In kind it is biochemical, Arachis hypogaea. The conditions noted are these: microsomal fraction of peanut hairy roots, 28° C., 60 min; read-out: apparent km.
The conditions of data set [6]: in vivo; cited from earlier work.
The next data set concerns the target AhR4DT-1 (Arachis hypogaea, UniProt A0A2H4GDC8). Briefly: AhR4DT-1 activity in microsomal fraction of N. benthamiana leaves. The conditions noted are these: N. benthamiana leaves.
Substrate in data set [7]: Oc1cc(O)cc(/C=C/c2ccc(O)c(O)c2)c1
Description: cells, lysate or membranes named.

Substrate in data set [8]: CC(C)=CCOP(=O)(O)OP(=O)(O)O
Briefly: cells, lysate or membranes named. The settings on record: other: microsomal fraction of N. benthamiana leaves, pH 9.0, 28° C.

Substrate in data set [9]: Oc1ccc(/C=C/c2cc(O)cc(O)c2)cc1
Description: cells, lysate or membranes named. The conditions noted are these: other: microsomal fraction of N. benthamiana leaves, pH 9.0, 28° C.

In the next data set the test system is resveratrol prenylation. Briefly: Screening for stilbenoid prenylation activity, crude extract of infiltrated N. benthamiana leaves. Type of data set: biochemical, Arachis hypogaea. The settings on record: resveratrol and DMAPP as substrates. How it is done:
The engineered A. tumefaciens was grown in 5 mL of YEP medium, containing 50 mg/L of kanamycin (Sigma-Aldrich) and 30 mg/L of streptomycin (Sigma-Aldrich) for antibiotic selection, at 28° C. on an orbital shaker at 200 rpm. After cultivation for 2 days, 5 mL of bacterial suspension was inoculated into 50 mL of fresh YEP medium containing the antibiotics and allowed to grow for one additional day under the same conditions. Bacteria were pelleted by centrifugation, resuspended in 500 mL of induction medium containing 10 mM MgCl2 with 1 mM acetosyringone and incubated for 4 h at 28° C. under 200 rpm orbital shaking until their OD600 reached to a range from 0.5 to 0.6. Before the infiltration, 0.005% of Tween-20, 0.005% of Triton 100 and 0.005% of Silwet L-77 were added to bacterial cultures to enhance the efficiency of transformation in N. benthamiana leaves. Agrobacterium-mediated vacuum infiltration was performed on 4-week-old N. benthamiana following the methodology described previously (Medrano et al., 2009).
After 48 hours of post-infiltration, the “middle tier” of N. benthamiana leaves were harvested for prenylation activity screening. Five grams of leaf tissue (fresh weight) were grounded and homogenized using a mortar with pestle in 10 mL of extraction buffer containing 100 mM Tris-HCl (pH 7.6) and 10 mM dithiothreitol (DTT). […] The total protein concentration was determined by coomassie protein assay (Thermo Scientific) using bovine serum albumin as standard.
The reaction of crude cell-free extract of N. benthamiana leaves infiltrated with A. tumefaciens harboring the empty pBIB-Kan vector was used as control.

Another data set has as its target AhR3′DT-1 (Arachis hypogaea, UniProt A0A2H4GDD0). Briefly: AhR3′DT-1 activity in microsomal fraction of N. benthamiana leaves. The conditions noted are these: N. benthamiana leaves.

Chain of human cannabinoid receptors 2 (hCBR2s) (P34972 whole entry): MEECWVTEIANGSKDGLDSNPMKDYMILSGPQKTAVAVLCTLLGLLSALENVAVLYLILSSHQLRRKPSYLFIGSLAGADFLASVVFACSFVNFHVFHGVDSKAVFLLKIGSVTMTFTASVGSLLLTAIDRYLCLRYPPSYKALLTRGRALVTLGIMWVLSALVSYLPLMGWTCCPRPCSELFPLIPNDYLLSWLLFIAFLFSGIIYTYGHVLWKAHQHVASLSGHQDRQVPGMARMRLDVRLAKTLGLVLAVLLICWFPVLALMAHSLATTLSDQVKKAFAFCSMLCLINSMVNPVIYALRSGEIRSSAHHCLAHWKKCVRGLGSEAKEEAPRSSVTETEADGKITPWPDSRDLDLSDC

With `CC(C)/C=C/c1c(O)cc(/C=C/c2ccc(O)c(O)c2)cc1O` [arachidin-1], the cytotoxicity entry (in the data set with leukemia HL-60 cells; in data set [1]) was “higher cytotoxicity than resveratrol” each time. The “binding to hCBR2s” value in data set [2] was “shown to bind”. The “inhibiting inducible nitric oxide production” value in the data set on macrophages is given as “more effective than resveratrol”. Further, the replication of rotavirus entry in the data set with rotavirus is given as “inhibiting the replication of rotavirus”. Further, in data set [3], the “lipophilicity compared with 3,3-dimethylallyl analogs” value is recorded as “higher lipophilicity”.

As for `CC(C)=CCc1c(O)cc(/C=C/c2ccc(O)cc2)cc1O` [arachidin-2], the “inhibiting inducible nitric oxide production” value in the data set with macrophages is on record as “more effective than resveratrol”. The “inhibiting production of intracellular reactive oxygen species” value in data set [4] is reported as “greater potency over resveratrol”.

Take `CC(C)/C=C/c1c(O)cc(/C=C/c2ccc(O)cc2)cc1O` [arachidin-3]: the “binding to hCBR2s” value in [2] is “shown to bind”. Moreover, the “inhibiting inducible nitric oxide production” value in the data set with macrophages is given as “more effective than resveratrol”. In addition, the “inhibiting production of intracellular reactive oxygen species” value in data set [4] is reported as “greater potency over resveratrol”. Further, the replication of rotavirus entry in the data set with rotavirus is on record as “inhibiting the replication of rotavirus”.

Consider `Oc1ccc(/C=C/c2cc(O)cc(O)c2)cc1` [resveratrol, 3,5,4′-trihydroxy-trans-stilbene], for which the Km in data set [5] was 111 ± 40.4 µM. For the same molecule, the oral bioavailability entry in data set [6] is “limited oral bioavailability”.

B1: AhR4DT-1 (Arachis hypogaea) (protein)
chain: MAFGHLVLIPRSTSSIATTAASCWKSKKFADNYYANSYGRRALWQSDRNLTKDHSIKTSLQHNISKLHYNPIERGSRCNKIEKTYLTNASSSAQSHESEPEVHESPKALESIKKGLVMFLQFCRLYAFLGMIPAGLSSSLLAVDNFSEISPLLFLKGVLQYIVTFFFTSQFVMGVNQLSDVEIDKINKPDLPLASGEYSFTSGVILVTSFLLAGFGVAWMLGSQPLIWSVVVTAALMGAYSVNFPLLRWKRSIILTSLSNAIAMLASFHIGPFLHMKTFVLKKAATFPRSMILGCVVIGLFYTIITLTKDLGDVEGDKAAGLKTLPIRLGVKPVFWLCVSLIQMAYGIAITMGALSPVLWSKIVTVVAHAFMVFYVWNHALNSVDLSSKDSLHSFHLFMFKLVTVEGILIQFVR
As to B1, the “specific activity, microsomal fraction vs crude cell-free extracts” value in the data set with AhR4DT-1 was found to be 8.9 fold. Also, the Km in data set [7] (other: microsomal fraction of N. benthamiana leaves, pH 9.0, 28° C.) came to 311.4 ± 54.83 µM; in data set [8] it was 153.7 ± 27.28 µM; in [9] it was 99.52 ± 15.11 µM.

B2: AhR3′DT-1 (Arachis hypogaea) (protein)
chain: MAFGVVAASFSRAPSIVTTRGCYVTRASLPNKSLKFSKEYNLKTSLQHNWKHNSRSIFERGSTITTCDKYDEKKYLMNVTQSHEAEPHSQSILKSIIDALDAFRKFSRFYAFIAMVVGSLSTSLLAVDNLTELYPAFFNGFLQCMAAYFFMHLYIVGINQLADLEIDKINKPYLPLASGNYSFRTAVITVTSFLFTGFGIAWIIGSKPLLWTIFASFVLMTAYSVNLPLLRWKKSTILTVMGNTLSMVISFNLGPFYHMKTHVLKKAATFPRSLLFAVVVMSMYYIVIALTKDIPDIEGDKEAGLQTLAIRLGPKTVFWSSVALLEMAYGAAIIIGASSPFLWSKISVVLSHAILALFVWYRSTLVDLSNKDSLQAFYMLIFKLFSVENILMLFVR
As for B2, the Km in data set [7] (pH 9.0, 28.0 °C) stood at 50.3 ± 5.509 µM; in data set [8], 691.4 ± 48.46 µM; in data set [9], 17.67 ± 1.601 µM. The resveratrol prenyltransferase activity entry in the data set on resveratrol prenylation was “highest activity”. For the same molecule, the “specific activity, microsomal fraction vs crude cell-free extracts” value with AhR3′DT-1 turned out to be 13.9 fold.
